These results are taken from patent US20250312370A1, “SYSTEMS AND METHODS FOR USE OF ADENOSINE TRIPHOSPHATE (ATP) TO RELIEVE SYMPTOMS OF COVID-19 AND RELATED INFECTIONS” (ADENYLATE THERAPEUTICS LLC, priority 2020, published 2025).

The subject of data set [1] is COVID-19. Put plainly: non-randomized trial of oral ATP supplementation for treatment of COVID-19 at two residential care facilities (facilities 1 and 2). It counts as in vivo, human. The source says: FIG. 3 provides a summary of short-term results of a non-randomized trial of ATP supplementation for treatment of COVID-19 at two different residential care facilities. When the facilities experienced a rapid and insidious onset of COVID-19 in 2020, optional oral ATP nutritional supplementation to COVID-19-positive patients in these two facilities was offered. Patients were given free choice to either accept or reject ATP supplementation. ATP doses ranged from 400-mg capsules four times per day (1600 mg) in the younger patients at facility 1 to three 400-mg capsules three times per day (3600 mg) for the older patients in facility 2. In both facilities, ATP was taken for at least a week after confirmation of SARS-CoV-2 infection. ATP also was offered in powder form to be mixed with food or drink at 450 mg per dose.
From the initial 13 patients diagnosed with COVID-19 in facility 1, six patients with average age 75.0 years chose to start ATP while the remaining seven with average age 74.7 years chose not to take ATP. Because of the visible developing benefit conferred by ATP, all subsequent COVID-19 patients at the facility 1 chose to begin taking ATP at the time of their diagnoses. All six patients who initially chose ATP were still alive.
At facility 2, all of the patients receiving ATP started taking ATP on the same day following confirmation of viral infection. All of the facility 2 patients taking ATP were alive. Because all patients taking ATP were elderly with multiple co-morbidities (including diabetes and heart disease), it would be expected that their death rate should be worse than that of the general population of individuals over 70 years of age.

Data set [2] has as its system COVID-19. Put plainly: oral ATP supplementation of COVID-19 patients in facility 3. It counts as in vivo, human. As to conditions: protocol similar to facilities 1 and 2. The source says: Using a protocol similar to those used in facilities 1 and 2, ATP supplementation was begun in facility 3.
The conditions of data set [3]: prolonged infusion; chronically debilitated patients with metastatic treatment refractory disease (Stage IV cancer); cited from earlier work.
Data set [4] has as its system advanced hormone refractory prostate cancer. As to conditions: oral ATP added to palliative agents such as samarium-153; cited from earlier work.
The conditions of data set [5]: in vivo; cited from earlier work.
The conditions of data set [6]: high dose oral ATP, cited from earlier work.

For the compound `Nc1ncnc2c1ncn2[C@@H]1O[C@H](COP(=O)(O)OP(=O)(O)OP(=O)(O)O)[C@@H](O)[C@H]1O` [ATP, Adenosine Triphosphate], in the data set with COVID-19 [1] (facilities 1 and 2, oral ATP 1600-3600 mg per day for at least a week, 2 months after the initiation of supplemental ATP), the “survival of COVID-19-positive patients accepting oral ATP” value was “alive and recovering”. Further, in the data set on COVID-19 [1] (facility 1, six patients, average age 75.0 years, 400-mg capsules four times per day), the “survival of patients who initially chose ATP” value is on record as “still alive”. Besides, the “survival of patients taking ATP” value with COVID-19 [1] (facility 2, older patients, three 400-mg capsules three times per day) is reported as “alive”. Also, the “survival of COVID-19 patients taking supplemental ATP” value with COVID-19 [2] is on record as “survived except for one patient”. Also, in data set [3], the safety of administration entry is given as “safely administered”. The “prostate biomarker PSA” value in data set [4] is reported as “dramatically reduces”. In data set [5], the pulmonary artery hypertension result is “reverse”. For the same compound, the cancer patient survival result in data set [6] (advanced cancer patients) is recorded as “improved”. Besides, in data set [6] (athletes), the athletic performance result is recorded as “improved”.
